10 compounds from US10278975B2, “Serine/threonine kinase inhibitors” (GENENTECH, INC., priority 2013, dated 2019) can be followed below.

The experiment has as its system PMA-stimulated P90RSK(Ser380) phosphorylation in HepG2 cells. Kind of experiment: Cellular P90RSK(Ser380) Phosphorylation Assay. It is filed as cell-based. The note with it: Homo sapiens, 1.5 hour compound incubation, PMA 100 ng/mL 30 min, normalized to GAPDH, read-out: P-P90RSK (S380) IC50. The protocol: Cellular P90RSK(Ser380) Phosphorylation Assay
Inhibition of PMA-stimulated P90RSK(Ser380) phosphorylation was determined by the following in vitro cellular mechanistic assay, which comprises incubating cells with a compound for 1.5 hours and quantifying fluorescent pP90RSK(Ser380) signal on fixed cells and normalizing to GAPDH signal.
Materials and Methods: HepG2 cells were obtained from ATCC and grown in DMEM supplemented with 10% fetal bovine serum. Cells were plated in 96-well plates at 35,000 cells/well and allowed to attach overnight at 37° C./5% CO2. Diluted compounds were then added at a final concentration of 0.5% DMSO. After 1.5 hour compound incubation, cells were stimulated with the addition of PMA (phorbol 12-myristate 13-acetate) at a final concentration of 100 ng/mL; the PMA stimulation was a 30-minute incubation at 37° C./5% CO2. After the 30-minute PMA stimulation, cells were washed with PBS and fixed in 3.7% formaldehyde in PBS at room temperature for 15-20 minutes. This was followed by another wash in PBS and then permeabilization in 100% MeOH at room temperature for 10-15 minutes. Following the permeabilization incubation, cells were washed in PBS/0.05% Tween-20, followed by a block in Odyssey blocking buffer (LI-COR Biosciences) for at least 1 hour. Antibodies to phosphorylated P90RSK(Ser380) (Cell Signaling #9335, rabbit monoclonal) and GAPDH (Fitzgerald 10R-G109a, mouse monoclonal) were added to the cells and incubated overnight at 4° C. pP90RSK(Ser380) antibody was used at a 1:250 dilution; GAPDH was used at a 1:10,000 dilution. After washing with PBS/0.05% Tween-20, the cells were incubated with fluorescently-labeled secondary antibodies (Anti-rabbit-Alexa Flour680, Invitrogen Cat#A21109; Anti-mouse-IRDye800CW, Rockland Inc. Cat#610-131-121) for 1 hour. Both secondary antibodies were used at a 1:1000 dilution. Cells were then washed and analyzed for fluorescence at both wavelengths using the Odyssey Infrared Imaging System (LI-COR Biosciences). Phosphorylated P90RSK(Ser380) signal was normalized to GAPDH signal. Representative date is in TABLE II (infra).
As usually defined, the IC50 is the midpoint of a concentration-inhibition curve. With `Cn1nccc1Nc1nccc(-c2cc3n4c(nnc4c2)[C@@H](Cc2ccccc2)CO3)n1` [(R) I-15, 4-(3-benzyl-3,4-dihydro-5-oxa-1,2,2a^1-triazaacenaphthylen-7-yl)-N-(1-methyl-1H-pyrazol-5-yl)pyrimidin-2-amine], the IC50 worked out at 2.91 nM. With `Cn1nccc1Nc1cc(-c2cc3n4c(nnc4c2)[C@@H](Cc2ccc(Cl)cc2)CO3)ccn1` [(R) I-48, 4-(3-(4-chlorobenzyl)-3,4-dihydro-5-oxa-1,2,2a^1-triazaacenaphthylen-7-yl)-N-(1-methyl-1H-pyrazol-5-yl)pyridin-2-amine], the IC50 amounted to 1.73 nM.

Take `Cn1nccc1Nc1nccc(-c2cc3n4c(nnc4c2)[C@H](Oc2ccc(F)cc2)CCO3)n1` [(R) I-66, 4-(9-(4-fluorophenoxy)-8,9-dihydro-7H-6-oxa-1,2,2a^1-triazabenzo[cd]azulen-4-yl)-N-(1-methyl-1H-pyrazol-5-yl)pyrimidin-2-amine]: the IC50 worked out at 1 nM. The same measure for `Cn1nccc1Nc1nccc(-c2cc3n4c(nnc4c2)[C@@H](Cn2cc(C(F)(F)F)cn2)CCO3)n1` [(R) I-73, N-(1-methyl-1H-pyrazol-5-yl)-4-(9-((4-(trifluoromethyl)-1H-pyrazol-1-yl)methyl)-8,9-dihydro-7H-6-oxa-1,2,2a^1-triazabenzo[cd]azulen-4-yl)pyrimidin-2-amine]: 4.47 nM; for `Cn1nccc1Nc1cc(-c2cc3n4c(nnc4c2)[C@@H](Cc2ccccc2)CN3)ccn1` [(S) I-7, 4-(3-benzyl-4,5-dihydro-3H-1,2,2a^1,5-tetraazaacenaaphthylen-7-yl)-N-(1-methyl-1H-pyrazol-5-yl)pyridin-2-amine]: 3.87 nM; for `Cn1nccc1Nc1nccc(-c2cc3n4c(nnc4c2)[C@@H](Cc2ccc(F)cc2)CN3)n1` [(S) I-21, 4-(3-(4-fluorobenzyl)-4,5-dihydro-3H-1,2,2a^1,5-tetraazaacenaphthylen-7-yl)-N-(1-methyl-1H-pyrazol-5-yl)pyrimidin-2-amine]: 4.32 nM. For `CN1C(=O)C[C@H](Cc2ccc(Cl)cc2)c2nnc3cc(-c4ccnc(Nc5ccnn5C)n4)cc1n23` [(S) I-22, 9-(4-chlorobenzyl)-6-methyl-4-(2-((1-methyl-1H-pyrazol-5-yl)amino)pyrimidin-4-yl)-8,9-dihydro-1,2,2a^1,6-tetraazabenzo[cd]azulen-7(6H)-one], the IC50 was 1.41 nM.

Consider `Cn1nccc1Nc1nccc(-c2cc3n4c(nnc4c2)[C@@H](COCc2ccccc2)CCO3)n1` [(S) I-29, 4-(9-((benzyloxy)methyl)-8,9-dihydro-7H-6-oxa-1,2,2a^1-triazabenzo[cd]azulen-4-yl)-N-(1-methyl-1H-pyrazol-5-yl)pyrimidin-2-amine], for which the IC50 amounted to 7.94 nM. To `Cn1nccc1Nc1nccc(-c2cc3n4c(nnc4c2)[C@@H](Cc2ccc(Cl)cc2)CCO3)n1` [(S) I-36, 4-(9-(4-chlorobenzyl)-8,9-dihydro-7H-6-oxa-1,2,2a^1-triazabenzo[cd]azulen-4-yl)-N-(1-methyl-1H-pyrazol-5-yl)pyrimidin-2-amine] belongs 2.45 nM; to `CN1C(=O)N(Cc2ccccc2)c2nnc3cc(-c4ccnc(Nc5ccnn5C)n4)cc1n23` [Compound I-28, 3-benzyl-5-methyl-7-(2-((1-methyl-1H-pyrazol-5-yl)amino)pyrimidin-4-yl)-3H-1,2,2a^1,3,5-pentaazaacenaphthylen-4(5H)-one], 5.05 nM.
